According to article PMC5218480 (PLoS ONE, 2017):

Tested on: MV-4-11 cells
Experiment: Gene expression microarray analysis (Affymetrix PrimeView) and GSEA
Type: cell-based, human
Set-up: RFU PODN (11730768_x_at) / Fold change /veh PODN (11730768_x_at) / RFU LINC00158 (11744669_a_at) / Fold change /veh LINC00158 (11744669_a_at) / RFU DUSP10 (11751237_a_at) / Fold change /veh DUSP10 (11751237_a_at) / RFU ID3 (11757404_x_at) / Fold change /veh ID3 (11757404_x_at) / RFU PLEKHG5 (11737974_s_at) / Fold change /veh PLEKHG5 (11737974_s_at) / RFU LRRC4B (11730491_at) / Fold change /veh LRRC4B (11730491_at) / RFU GIMAP4 (11747438_a_at) / Fold change /veh GIMAP4 (11747438_a_at) / RFU KRT8 (11758183_x_at) / Fold change /veh KRT8 (11758183_x_at) / RFU CNN1 (11734310_a_at) / Fold change /veh CNN1 (11734310_a_at) / RFU VPS37D (11726825_at) / Fold change /veh VPS37D (11726825_at) / RFU C10orf10 (11716522_x_at) / Fold change /veh C10orf10 (11716522_x_at) / RFU KIR2DL2 /// KIR2DL4 /// KIR2DL5A /// KIR2DL5B /// KIR2DS1 /// KIR2DS2 /// KIR2DS3 /// KIR2DS4 /// KIR3DL3 /// KIR3DL3 /// KIR3DS1 (11738374_at) / Fold change /veh KIR2DL2 /// KIR2DL4 /// KIR2DL5A /// KIR2DL5B /// KIR2DS1 /// KIR2DS2 /// KIR2DS3 /// KIR2DS4 /// KIR3DL3 /// KIR3DL3 /// KIR3DS1 (11738374_at) / RFU C1QL1 (11718748_at) / Fold change /veh C1QL1 (11718748_at) / RFU TMPRSS4 (11747572_a_at) / Fold change /veh TMPRSS4 (11747572_a_at) / RFU HAMP (11756126_x_at) / Fold change /veh HAMP (11756126_x_at) / RFU RNFT2 (11725882_a_at) / Fold change /veh RNFT2 (11725882_a_at) / RFU NR4A2 (11747474_a_at) / Fold change /veh NR4A2 (11747474_a_at) / RFU ABCC12 (11746883_a_at) / Fold change /veh ABCC12 (11746883_a_at) / RFU TMEM136 (11760407_x_at) / Fold change /veh TMEM136 (11760407_x_at) / RFU CLDN22 /// WWC2 (11732394_at) / Fold change /veh CLDN22 /// WWC2 (11732394_at) / RFU HLA-DPB1 (11760878_x_at) / Fold change /veh HLA-DPB1 (11760878_x_at) / RFU SPINT1 (11716480_a_at) / Fold change /veh SPINT1 (11716480_a_at) / RFU GAP43 (11754022_s_at) / Fold change /veh GAP43 (11754022_s_at) / RFU A4GNT (11735810_at) / Fold change /veh A4GNT (11735810_at) / RFU PRB3 (11715151_x_at) / Fold change /veh PRB3 (11715151_x_at) / RFU TUBB4B (11761932_at) / Fold change /veh TUBB4B (11761932_at) / RFU CAPN14 (11732068_a_at) / Fold change /veh CAPN14 (11732068_a_at) / RFU TMCC2 (11721928_a_at) / Fold change /veh TMCC2 (11721928_a_at) / RFU IRGQ (11745062_a_at) / Fold change /veh IRGQ (11745062_a_at) / RFU FAM174B (11720279_a_at) / Fold change /veh FAM174B (11720279_a_at) / RFU TMPRSS4 (11748680_a_at) / Fold change /veh TMPRSS4 (11748680_a_at) / RFU FAM212B (11763350_a_at) / Fold change /veh FAM212B (11763350_a_at) / RFU PLEKHG5 (11743358_a_at) / Fold change /veh PLEKHG5 (11743358_a_at) / RFU ZSCAN30 (11745921_a_at) / Fold change /veh ZSCAN30 (11745921_a_at) / RFU CMKLR1 (11741424_a_at) / Fold change /veh CMKLR1 (11741424_a_at) / RFU LOC101060620 /// MAPK8IP1 (11723275_at) / Fold change /veh LOC101060620 /// MAPK8IP1 (11723275_at) / RFU SPTSSB (11747773_x_at) / Fold change /veh SPTSSB (11747773_x_at) / RFU PRSS12 (11739890_at) / Fold change /veh PRSS12 (11739890_at) / RFU BIN1 (11741810_x_at) / Fold change /veh BIN1 (11741810_x_at) / RFU WNT11 (11732464_a_at) / Fold change /veh WNT11 (11732464_a_at) / RFU C10orf10 (11716521_a_at) / Fold change /veh C10orf10 (11716521_a_at) / RFU C5orf56 (11738089_at) / Fold change /veh C5orf56 (11738089_at) / RFU CYB561 (11721691_x_at) / Fold change /veh CYB561 (11721691_x_at) / RFU ANKRD19P (11752326_a_at) / Fold change /veh ANKRD19P (11752326_a_at) / RFU OR2T12 /// OR2T33 /// OR2T8 (11738714_s_at) / Fold change /veh OR2T12 /// OR2T33 /// OR2T8 (11738714_s_at) / RFU VCAN (11748164_a_at) / Fold change /veh VCAN (11748164_a_at) / RFU JSRP1 (11732532_at) / Fold change /veh JSRP1 (11732532_at) / RFU KRTAP10-11 (11738290_x_at) / Fold change /veh KRTAP10-11 (11738290_x_at) / RFU MYO3A (11730013_a_at) / Fold change /veh MYO3A (11730013_a_at) / RFU EBF3 (11725865_a_at) / Fold change /veh EBF3 (11725865_a_at) / RFU CAMK2N1 (11719241_x_at) / Fold change /veh CAMK2N1 (11719241_x_at) / RFU C5orf56 (11738088_a_at) / Fold change /veh C5orf56 (11738088_a_at) / RFU OLFML3 (11715873_a_at) / Fold change /veh OLFML3 (11715873_a_at) / RFU LOC100653217 /// NTM (11731650_a_at) / Fold change /veh LOC100653217 /// NTM (11731650_a_at) / RFU MAPK11 (11762145_a_at) / Fold change /veh MAPK11 (11762145_a_at) / RFU FIZ1 (11724087_x_at) / Fold change /veh FIZ1 (11724087_x_at) / RFU OASL (11726364_x_at) / Fold change /veh OASL (11726364_x_at) / RFU SOX15 (11748057_x_at) / Fold change /veh SOX15 (11748057_x_at) / RFU CD79A (11719716_a_at) / Fold change /veh CD79A (11719716_a_at) / RFU HIST1H1D (11736915_at) / Fold change /veh HIST1H1D (11736915_at) / RFU CASKIN2 (11723855_a_at) / Fold change /veh CASKIN2 (11723855_a_at) / RFU LOC730098 (11760151_x_at) / Fold change /veh LOC730098 (11760151_x_at) / RFU OR4N2 (11742367_at) / Fold change /veh OR4N2 (11742367_at) / RFU PRRT2 (11749266_a_at) / Fold change /veh PRRT2 (11749266_a_at) / RFU SNX32 (11753110_a_at) / Fold change /veh SNX32 (11753110_a_at) / RFU CDHR5 (11726645_a_at) / Fold change /veh CDHR5 (11726645_a_at) / RFU RCAN1 (11760418_a_at) / Fold change /veh RCAN1 (11760418_a_at) / RFU FAM167A (11723789_a_at) / Fold change /veh FAM167A (11723789_a_at) / RFU FAM26E (11764081_at) / Fold change /veh FAM26E (11764081_at) / RFU ISYNA1 (11749810_s_at) / Fold change /veh ISYNA1 (11749810_s_at) / RFU ACY1 (11761880_at) / Fold change /veh ACY1 (11761880_at) / RFU 11764098_at / Fold change /veh 11764098_at / RFU SAMD14 (11745864_x_at) / Fold change /veh SAMD14 (11745864_x_at) / RFU NPB (11741838_a_at) / Fold change /veh NPB (11741838_a_at) / RFU TMPRSS6 (11731388_a_at) / Fold change /veh TMPRSS6 (11731388_a_at) / RFU KRTAP10-2 (11738614_at) / Fold change /veh KRTAP10-2 (11738614_at) / RFU ARHGAP8 /// PRR5-ARHGAP8 (11727945_x_at) / Fold change /veh ARHGAP8 /// PRR5-ARHGAP8 (11727945_x_at) / RFU KRTAP5-7 /// NADSYN1 (11734609_at) / Fold change /veh KRTAP5-7 /// NADSYN1 (11734609_at) / RFU RASL12 (11751679_a_at) / Fold change /veh RASL12 (11751679_a_at) / RFU CDKN2B (11736163_a_at) / Fold change /veh CDKN2B (11736163_a_at) / RFU PRF1 (11729649_at) / Fold change /veh PRF1 (11729649_at) / RFU, ZNF638 /// ZNF638-IT1 / Fold change vs veh, ZNF638 /// ZNF638-IT1 / RFU, PANK3 / Fold change vs veh, PANK3 / RFU, SH3YL1 / Fold change vs veh, SH3YL1 / RFU, ZEB2 / Fold change vs veh, ZEB2 / RFU, NRIP1 / Fold change vs veh, NRIP1 / RFU, PTTG1IP / Fold change vs veh, PTTG1IP / RFU, CAPN2 / Fold change vs veh, CAPN2 / RFU, MED14 / Fold change vs veh, MED14 / RFU, SNORA58 / Fold change vs veh, SNORA58 / RFU, C1orf63 / Fold change vs veh, C1orf63 / RFU, LRRFIP1 / Fold change vs veh, LRRFIP1 / RFU, NDUFAF7 / Fold change vs veh, NDUFAF7 / RFU, SLC12A2 / Fold change vs veh, SLC12A2 / RFU, IBTK / Fold change vs veh, IBTK / RFU, ESF1 / Fold change vs veh, ESF1 / Fold change vs veh, TMEM50B / RFU, TAOK1 / Fold change vs veh, TAOK1 / RFU, ACBD3 / Fold change vs veh, ACBD3 / RFU, TMA16 / Fold change vs veh, TMA16 / RFU, RWDD3 / Fold change vs veh, RWDD3 / RFU, BCAT1 / Fold change vs veh, BCAT1 / RFU, EDEM3 / Fold change vs veh, EDEM3 / RFU, TMEM33 / Fold change vs veh, TMEM33 / RFU, WDR75 / Fold change vs veh, WDR75 / RFU, AHCTF1 / Fold change vs veh, AHCTF1 / RFU, TFRC / Fold change vs veh, TFRC / RFU, ZDHHC17 / Fold change vs veh, ZDHHC17 / RFU, NOM1 / Fold change vs veh, NOM1 / RFU, ARL8B / Fold change vs veh, ARL8B / RFU, ZBTB11 / Fold change vs veh, ZBTB11 / RFU, TAMM41 / Fold change vs veh, TAMM41 / RFU, KIAA1704 /// LOC100996395 / Fold change vs veh, KIAA1704 /// LOC100996395 / RFU, ING1 / Fold change vs veh, ING1 / RFU, TRMT61B / Fold change vs veh, TRMT61B / RFU, FUBP3 / Fold change vs veh, FUBP3 / RFU, TP53 / Fold change vs veh, TP53 / RFU, TNKS2 / Fold change vs veh, TNKS2 / RFU, ZFP14 / Fold change vs veh, ZFP14 / RFU, ACTR2 / Fold change vs veh, ACTR2 / RFU, PPP3R1 / Fold change vs veh, PPP3R1 / RFU, PIK3R1 / Fold change vs veh, PIK3R1 / RFU, HNRNPA1 / Fold change vs veh, HNRNPA1 / RFU, RNF170 / Fold change vs veh, RNF170 / RFU, ZNF28 / Fold change vs veh, ZNF28 / RFU, RNGTT / Fold change vs veh, RNGTT / RFU, OGT / Fold change vs veh, OGT / RFU, BRD1 / Fold change vs veh, BRD1 / RFU, MARS / Fold change vs veh, MARS / RFU, ZNF655 / Fold change vs veh, ZNF655 / RFU, FAHD1 / Fold change vs veh, FAHD1 / RFU, BDP1 / Fold change vs veh, BDP1 / RFU, LRRCC1 / Fold change vs veh, LRRCC1 / RFU, ARID1A / Fold change vs veh, ARID1A / RFU, ZNF146 / Fold change vs veh, ZNF146 / RFU, ZNF330 / Fold change vs veh, ZNF330 / RFU, GPN3 / Fold change vs veh, GPN3 / RFU, C9orf123 / Fold change vs veh, C9orf123 / RFU, N4BP2L2 / Fold change vs veh, N4BP2L2 / RFU, ARFIP1 / Fold change vs veh, ARFIP1 / RFU, FAM179B / Fold change vs veh, FAM179B / RFU, BCL10 / Fold change vs veh, BCL10 / RFU, UHRF1BP1L / Fold change vs veh, UHRF1BP1L / RFU, BET1 / Fold change vs veh, BET1 / RFU, CNOT2 / Fold change vs veh, CNOT2 / RFU, ZNF268 / Fold change vs veh, ZNF268 / Fold change vs veh, ZNF507 / RFU, DGCR2 / Fold change vs veh, DGCR2 / RFU, WDSUB1 / Fold change vs veh, WDSUB1 / Fold change vs veh, HSP90B1 /// MIR3652 / RFU, ADSS / Fold change vs veh, ADSS / RFU, GK / Fold change vs veh, GK / RFU, ZNF148 / Fold change vs veh, ZNF148 / RFU, TAF9 / Fold change vs veh, TAF9 / RFU, SLC1A5 / Fold change vs veh, SLC1A5 / RFU, SLMO2 / Fold change vs veh, SLMO2 / RFU, ABCC4 / Fold change vs veh, ABCC4 / RFU, LOC101060439 /// RAP1B / Fold change vs veh, LOC101060439 /// RAP1B / RFU, RFX7 / Fold change vs veh, RFX7 / RFU, GTPBP10 / Fold change vs veh, GTPBP10 / RFU, CNEP1R1 / Fold change vs veh, CNEP1R1 / RFU, BIVM-ERCC5 /// ERCC5 / Fold change vs veh, BIVM-ERCC5 /// ERCC5 / RFU, ILF3 / Fold change vs veh, ILF3 / RFU 11762660_at / Fold change /veh 11762660_at / RFU VCAN (11757783_s_at) / Fold change /veh VCAN (11757783_s_at) / RFU DDX43 (11728927_at) / Fold change /veh DDX43 (11728927_at) / RFU KRT8 (11758188_x_at) / Fold change /veh KRT8 (11758188_x_at) / RFU NKD1 (11759106_at) / Fold change /veh NKD1 (11759106_at) / RFU SRD5A1 (11742802_a_at) / Fold change /veh SRD5A1 (11742802_a_at) / RFU TPSAB1 /// TPSB2 (11721975_s_at) / Fold change /veh TPSAB1 /// TPSB2 (11721975_s_at) / RFU GSTM3 (11746129_a_at) / Fold change /veh GSTM3 (11746129_a_at) / RFU IL23R (11737362_x_at) / Fold change /veh IL23R (11737362_x_at) / RFU TMEM51 (11727254_a_at) / Fold change /veh TMEM51 (11727254_a_at) / RFU PIWIL2 (11732686_x_at) / Fold change /veh PIWIL2 (11732686_x_at) / RFU ORM1 (11744905_x_at) / Fold change /veh ORM1 (11744905_x_at) / RFU CCDC152 (11743942_at) / Fold change /veh CCDC152 (11743942_at) / RFU ECM1 (11717891_a_at) / Fold change /veh ECM1 (11717891_a_at) / RFU IL23R (11748794_a_at) / Fold change /veh IL23R (11748794_a_at) / RFU TNFAIP8L3 (11732012_x_at) / Fold change /veh TNFAIP8L3 (11732012_x_at) / RFU MBOAT4 (11741988_at) / Fold change /veh MBOAT4 (11741988_at) / RFU 11764193_at / Fold change /veh 11764193_at / RFU TMEM53 (11763286_at) / Fold change /veh TMEM53 (11763286_at) / RFU MAGEB2 (11727129_at) / Fold change /veh MAGEB2 (11727129_at) / RFU TMEM200A (11744735_a_at) / Fold change /veh TMEM200A (11744735_a_at) / RFU CCDC152 (11751479_a_at) / Fold change /veh CCDC152 (11751479_a_at) / RFU FAM211A (11726209_a_at) / Fold change /veh FAM211A (11726209_a_at) / RFU RGS16 (11746705_a_at) / Fold change /veh RGS16 (11746705_a_at) / RFU VCAN (11755009_s_at) / Fold change /veh VCAN (11755009_s_at) / RFU RHOB (11743442_s_at) / Fold change /veh RHOB (11743442_s_at) / RFU RGS16 (11720943_a_at) / Fold change /veh RGS16 (11720943_a_at) / RFU RGS16 (11720944_at) / Fold change /veh RGS16 (11720944_at) / RFU, VPS4B / Fold change vs veh, VPS4B / RFU, CREB1 / Fold change vs veh, CREB1 / RFU, DNAJC13 / Fold change vs veh, DNAJC13 / RFU, GNAQ / Fold change vs veh, GNAQ / RFU, CDK5R1 / Fold change vs veh, CDK5R1 / RFU, ZRANB3 / Fold change vs veh, ZRANB3 / RFU, CUL4A / Fold change vs veh, CUL4A / RFU, CCNY / Fold change vs veh, CCNY / RFU, UFL1 / Fold change vs veh, UFL1 / RFU, COG3 / Fold change vs veh, COG3 / RFU, DIAPH2 / Fold change vs veh, DIAPH2 / RFU, SKA2 / Fold change vs veh, SKA2 / RFU, AFF3 / Fold change vs veh, AFF3 / RFU, LMF1 / Fold change vs veh, LMF1 / RFU, IPO11 / Fold change vs veh, IPO11 / RFU, DFFB / Fold change vs veh, DFFB / RFU, FOXP1 / Fold change vs veh, FOXP1 / RFU, CARD8 / Fold change vs veh, CARD8 / RFU, STRN3 / Fold change vs veh, STRN3 / RFU, ADK / Fold change vs veh, ADK / RFU, RASSF2 / Fold change vs veh, RASSF2 / RFU, WIPF1 / Fold change vs veh, WIPF1 / RFU, LARP1B / Fold change vs veh, LARP1B / RFU, RASA1 / Fold change vs veh, RASA1 / RFU, RB1 / Fold change vs veh, RB1 / RFU, PPFIA1 / Fold change vs veh, PPFIA1 / RFU, MAT2A / Fold change vs veh, MAT2A / RFU, CCT5 / Fold change vs veh, CCT5 / RFU, WDR92 / Fold change vs veh, WDR92 / RFU, CUX1 / Fold change vs veh, CUX1 / RFU, TTC7A / Fold change vs veh, TTC7A / RFU, TMEM135 / Fold change vs veh, TMEM135 / RFU, DEPTOR / Fold change vs veh, DEPTOR / RFU, CPM / Fold change vs veh, CPM / RFU, DNAJB6 / Fold change vs veh, DNAJB6 / RFU, CACNA2D3 / Fold change vs veh, CACNA2D3 / RFU, DTX4 / Fold change vs veh, DTX4 / RFU, TFCP2 / Fold change vs veh, TFCP2 / RFU, GMCL1 /// GMCL1P1 / Fold change vs veh, GMCL1 /// GMCL1P1 / RFU, AEBP2 / Fold change vs veh, AEBP2 / RFU, SNHG1 /// SNORD22 /// SNORD25 /// SNORD26 /// SNORD27 /// SNORD28 /// SNORD29 /// SNORD31 / Fold change vs veh, SNHG1 /// SNORD22 /// SNORD25 /// SNORD26 /// SNORD27 /// SNORD28 /// SNORD29 /// SNORD31 / Fold change (Aza/veh), C12orf56 (ProbeSet 11735607_a_at) / Fold change (ACY-1035/veh), C12orf56 (ProbeSet 11735607_a_at) / Fold change (Aza/veh), FGFR1OP (ProbeSet 11751329_s_at) / Fold change (ACY-1035/veh), FGFR1OP (ProbeSet 11751329_s_at) / Fold change (Aza/veh), VPS36 (ProbeSet 11739960_a_at) / Fold change (ACY-1035/veh), VPS36 (ProbeSet 11739960_a_at) / RFU SYPL1 (11715823_x_at) / Fold change /veh SYPL1 (11715823_x_at) / RFU IGFBP7 (11715501_s_at) / Fold change /veh IGFBP7 (11715501_s_at) / RFU REEP3 (11722064_at) / Fold change /veh REEP3 (11722064_at) / RFU IGLL1 (11728026_x_at) / Fold change /veh IGLL1 (11728026_x_at): dose or concentration left out as unconfirmed
Details: MV-4-11 cells, 48 hours

Nc1ccc(-c2cccs2)cc1NC(=O)c1ccc2c(c1)cc(C1CC1)n2CCN1CCOCC1 [ACY-1035]
Fold change /veh ZSCAN30 (11745921_a_at): 1.04
